Measured values taken from patent US12378231B2, “Small molecules as monoacylglycerol lipase (MAGL) inhibitors, compositions and use thereof” (APOGEE PHARMACEUTICALS, INC., priority 2023, dated 2025).

Experiments:
human recombinant MAGL = human recombinant MAGL (Homo sapiens (Human), UniProt Q99685); test: In vitro inhibition of human recombinant MAGL activity (Cayman inhibitor screening kit, 4-nitrophenylacetate hydrolysis); assay type: biochemical; conditions: human recombinant MAGL; read-out: Inhibition on MAGL activity (IC50)
human recombinant MAGL, sequence (Q99685 whole entry): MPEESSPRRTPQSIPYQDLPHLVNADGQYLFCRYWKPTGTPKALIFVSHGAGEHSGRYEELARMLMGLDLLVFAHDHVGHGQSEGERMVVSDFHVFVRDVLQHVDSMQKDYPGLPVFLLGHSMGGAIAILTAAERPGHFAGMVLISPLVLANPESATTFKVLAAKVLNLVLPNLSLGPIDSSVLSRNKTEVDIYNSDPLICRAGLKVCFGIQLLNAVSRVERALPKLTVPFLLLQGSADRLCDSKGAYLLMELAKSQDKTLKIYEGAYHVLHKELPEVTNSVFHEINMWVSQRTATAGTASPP
Excerpt: The inhibitory effect of the synthetic chemicals on activity of human recombinant MAGL was studied using commercial inhibitor screening kit (Cayman Chemical). […] The absorbance of the yellow product can be analyzed using the plate reader. […]

human recombinant FAAH = human recombinant FAAH (Homo sapiens (Human), UniProt O00519); test: In vitro inhibition of human recombinant FAAH activity (Cayman FAAH inhibitor screening kit, AMC arachidonoyl amide hydrolysis); assay type: biochemical
human recombinant FAAH, sequence (O00519 whole entry): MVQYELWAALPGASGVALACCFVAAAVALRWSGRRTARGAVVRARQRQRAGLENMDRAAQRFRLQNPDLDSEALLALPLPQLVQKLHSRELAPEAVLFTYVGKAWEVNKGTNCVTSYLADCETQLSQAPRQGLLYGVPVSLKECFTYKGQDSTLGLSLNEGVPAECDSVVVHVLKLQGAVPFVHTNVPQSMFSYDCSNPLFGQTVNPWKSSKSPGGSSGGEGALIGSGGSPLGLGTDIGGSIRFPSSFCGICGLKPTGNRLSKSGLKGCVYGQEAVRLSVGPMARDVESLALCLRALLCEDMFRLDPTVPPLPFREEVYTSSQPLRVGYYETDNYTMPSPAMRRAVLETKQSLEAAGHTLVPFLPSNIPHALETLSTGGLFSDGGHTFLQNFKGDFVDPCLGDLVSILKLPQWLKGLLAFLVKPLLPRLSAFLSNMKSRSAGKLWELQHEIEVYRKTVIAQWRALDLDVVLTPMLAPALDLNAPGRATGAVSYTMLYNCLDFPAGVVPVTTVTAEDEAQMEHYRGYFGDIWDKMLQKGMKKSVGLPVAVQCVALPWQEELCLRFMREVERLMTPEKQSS
Excerpt: In brief, FAAH hydrolyzes AMC arachidonoyl amide resulting in the release of the fluorescent product, while the inhibitor will inhibit the FAAH activity and thus reduce the fluorescent signal.

Row | Structure (SMILES) | IC50 (human recombinant MAGL) | IC50 (human recombinant FAAH)
1 | N#Cc1ccc2c(c1)nnn2C(=O)N1CCC(N(c2ccc(F)cc2)c2ccc3c(c2)OCO3)CC1 [Example 64, 1-(4-(benzo[d][1,3]dioxol-5-yl(4-fluorophenyl)amino)piperidine-1-carbonyl)-1H-benzo[d][1,2,3]triazole-5-carbonitrile] | 1 to 10 nM | 10 to 100 nM
2 | COc1ccc(N(c2ccc(F)cc2)C2CCN(C(=O)n3nnc4ccc(C#N)cc43)CC2)cc1 [Example 65, 1-(4-((4-fluorophenyl)(4-methoxyphenyl)amino)piperidine-1-carbonyl)-1H-benzo[d][1,2,3]triazole-6-carbonitrile] | 1 to 10 nM | 100 to 1000 nM
3 | COc1ccc(N(c2ccc(F)cc2)C2CCN(C(=O)n3nnc4cc(C#N)ccc43)CC2)cc1 [Example 66, 1-(4-((4-fluorophenyl)(4-methoxyphenyl)amino)piperidine-1-carbonyl)-1H-benzo[d][1,2,3]triazole-5-carbonitrile] | 1 to 10 nM | 100 to 1000 nM
4 | N#Cc1ccc2nnn(C(=O)N3CCC(N(c4ccc(C(F)(F)F)cc4)c4ccc5c(c4)OCO5)CC3)c2c1 [Example 69, 1-(4-(benzo[d][1,3]dioxol-5-yl(4-(trifluoromethyl)phenyl)amino)piperidine-1-carbonyl)-1H-benzo[d][1,2,3]triazole-6-carbonitrile] | 1 to 10 nM | 100 to 1000 nM
5 | N#Cc1ccc2c(c1)nnn2C(=O)N1CCC(N(c2ccc(C(F)(F)F)cc2)c2ccc3c(c2)OCO3)CC1 [Example 70, 1-(4-(benzo[d][1,3]dioxol-5-yl(4-(trifluoromethyl)phenyl)amino)piperidine-1-carbonyl)-1H-benzo[d][1,2,3]triazole-5-carbonitrile] | 1 to 10 nM | 100 to 1000 nM
6 | COc1ccc(N(c2ccc3c(c2)OCO3)C2CCN(C(=O)n3nnc4ccc(C#N)cc43)CC2)cc1 [Example 72, 1-(4-(benzo[d][1,3]dioxol-5-yl(4-methoxyphenyl)amino)piperidine-1-carbonyl)-1H-benzo[d][1,2,3]triazole-6-carbonitrile] | 1 to 10 nM | 100 to 1000 nM
7 | COc1ccc(N(c2ccc3c(c2)OCO3)C2CCN(C(=O)n3nnc4cc(C#N)ccc43)CC2)cc1 [Example 73, 1-(4-(benzo[d][1,3]dioxol-5-yl(4-methoxyphenyl)amino)piperidine-1-carbonyl)-1H-benzo[d][1,2,3]triazole-5-carbonitrile] | 1 to 10 nM | 100 to 1000 nM
8 | N#Cc1ccc2nnn(C(=O)N3CCC(N(c4cccnc4)c4ccc5c(c4)OCO5)CC3)c2c1 [Example 74, 1-(4-(benzo[d][1,3]dioxol-5-yl(pyridin-3-yl)amino)piperidine-1-carbonyl)-1H-benzo[d][1,2,3]triazole-6-carbonitrile] | 1 to 10 nM | 100 to 1000 nM
9 | N#Cc1ccc2c(c1)nnn2C(=O)N1CCC(N(c2cccnc2)c2ccc3c(c2)OCO3)CC1 [Example 75, 1-(4-(benzo[d][1,3]dioxol-5-yl(pyridin-3-yl)amino)piperidine-1-carbonyl)-1H-benzo[d][1,2,3]triazole-5-carbonitrile] | 1 to 10 nM | 100 to 1000 nM
10 | C=COc1ccc(N(c2ccc(F)cc2)C2CCN(C(=O)n3nnc4ccc(C#N)cc43)CC2)cc1 [Example 76, 1-(4-((4-fluorophenyl)(4-(vinyloxy)phenyl)amino)piperidine-1-carbonyl)-1H-benzo[d][1,2,3]triazole-6-carbonitrile] | 1 to 10 nM | 100 to 1000 nM
11 | C=COc1ccc(N(c2ccc(F)cc2)C2CCN(C(=O)n3nnc4cc(C#N)ccc43)CC2)cc1 [Example 77, 1-(4-((4-fluorophenyl)(4-(vinyloxy)phenyl)amino)piperidine-1-carbonyl)-1H-benzo[d][1,2,3]triazole-5-carbonitrile] | 1 to 10 nM | 100 to 1000 nM
12 | COc1ccc(C(c2ccc(F)cc2)N2CCN(C(=O)n3nnc4cc(C#N)ccc43)CC2)cc1 (stereo not shown) [Example 87, 1-(4-((4-fluorophenyl)(4-methoxyphenyl)methyl)piperazine-1-carbonyl)-1H-benzo[d][1,2,3]triazole-5-carbonitrile] | 1 to 10 nM | 100 to 10000 nM
13 | COc1ccc(C(c2ccc(OC)cc2)N2CCN(C(=O)n3nnc4ccc(C#N)cc43)CC2)cc1 [Example 88, 1-(4-(bis(4-methoxyphenyl)methyl)piperazine-1-carbonyl)-1H-benzo[d][1,2,3]triazole-6-carbonitrile] | 1 to 10 nM | ~50000 nM
14 | COc1ccc(C(c2ccc(OC)cc2)N2CCN(C(=O)n3nnc4cc(C#N)ccc43)CC2)cc1 [Example 89, 1-(4-(bis(4-methoxyphenyl)methyl)piperazine-1-carbonyl)-1H-benzo[d][1,2,3]triazole-5-carbonitrile] | 10 to 100 nM | 1000 to 10000 nM
15 | COc1ccc(C(c2ccc(OC)c(OC)c2)N2CCN(C(=O)n3nnc4ccc(C#N)cc43)CC2)cc1OC [Example 93, 1-(4-(bis(3,4-dimethoxyphenyl)methyl)piperazine-1-carbonyl)-1H-benzo[d][1,2,3]triazole-6-carbonitrile] | 10 to 100 nM | > 50000 nM
16 | COc1ccc(C(c2ccc(OC)c(OC)c2)N2CCN(C(=O)n3nnc4cc(C#N)ccc43)CC2)cc1OC [Example 94, 1-(4-(bis(3,4-dimethoxyphenyl)methyl)piperazine-1-carbonyl)-1H-benzo[d][1,2,3]triazole-5-carbonitrile] | 10 to 100 nM | > 50000 nM
17 | COc1cccc(C(c2cccc(OC)c2)N2CCN(C(=O)n3nnc4ccc(C#N)cc43)CC2)c1 [Example 95, 1-(4-(bis(3-methoxyphenyl)methyl)piperazine-1-carbonyl)-1H-benzo[d][1,2,3]triazole-6-carbonitrile] | 1 to 10 nM | 10000 to 50000 nM

Further lines, results first:

Row | IC50 (human recombinant MAGL) | IC50 (human recombinant FAAH) | Structure (SMILES)
18 | 1 to 10 nM | 100 to 1000 nM | N#Cc1ccc2nnn(C(=O)N3CCC(N(c4ccc5c(c4)OCO5)c4ccc5c(c4)OCO5)CC3)c2c1 [Example 67, 1-(4-(bis(benzo[d][1,3]dioxol-5-yl)amino)piperidine-1-carbonyl)-1H-benzo[d][1,2,3]triazole-6-carbonitrile]
19 | 1 to 10 nM | 100 to 1000 nM | N#Cc1ccc2c(c1)nnn2C(=O)N1CCC(N(c2ccc3c(c2)OCO3)c2ccc3c(c2)OCO3)CC1 [Example 68, 1-(4-(bis(benzo[d][1,3]dioxol-5-yl)amino)piperidine-1-carbonyl)-1H-benzo[d][1,2,3]triazole-5-carbonitrile]
20 | 1 to 10 nM | 100 to 1000 nM | N#Cc1ncn(C(=O)N2CCC(N(c3ccc(C(F)(F)F)cc3)c3ccc4c(c3)OCO4)CC2)n1 [Example 71, 1-(4-(benzo[d][1,3]dioxol-5-yl(4-(trifluoromethyl)phenyl)amino)piperidine-1-carbonyl)-1H-1,2,4-triazole-3-carbonitrile]
21 | 1 to 10 nM | ~50000 nM | N#Cc1ncn(C(=O)N2CCC3(CC2)CCN(C(c2ccc4c(c2)COCO4)c2ccc4c(c2)COCO4)CC3)n1 [Example 79, 1-(9-(bis(4H-benzo[d][1,3]dioxin-6-yl)methyl)-3,9-diazaspiro[5.5]undecane-3-carbonyl)-1H-1,2,4-triazole-3-carbonitrile]
22 | 10 to 100 nM | 10000 to 50000 nM | N#Cc1ncn(C(=O)N2CC3(C2)CN(C(c2ccc4c(c2)COCO4)c2ccc4c(c2)COCO4)C3)n1 [Example 80, 1-(6-(bis(4H-benzo[d][1,3]dioxin-6-yl)methyl)-2,6-diazaspiro[3.3]heptane-2-carbonyl)-1H-1,2,4-triazole-3-carbonitrile]
23 | 1 to 10 nM | 1000 to 10000 nM | N#Cc1ncn(C(=O)N2CC3CN(C(c4ccc5c(c4)COCO5)c4ccc5c(c4)COCO5)CC3C2)n1 (stereo not drawn) [Example 81, meso-1-(5-(bis(4H-benzo[d][1,3]dioxin-6-yl)methyl)octahydropyrrolo[3,4-c]pyrrole-2-carbonyl)-1H-1,2,4-triazole-3-carbonitrile]
24 | 10 to 100 nM | > 50000 nM | N#Cc1ncn(C(=O)N2CC3(CCN(C(c4ccc5c(c4)COCO5)c4ccc5c(c4)COCO5)CC3)C2)n1 [Example 82, 1-(7-(bis(4H-benzo[d][1,3]dioxin-6-yl)methyl)-2,7-diazaspiro[3.5]nonane-2-carbonyl)-1H-1,2,4-triazole-3-carbonitrile]
25 | 1 to 10 nM | 10000 to 50000 nM | N#Cc1ncn(C(=O)N2CCC3(CC2)CN(C(c2ccc4c(c2)COCO4)c2ccc4c(c2)COCO4)C3)n1 [Example 83, 1-(2-(bis(4H-benzo[d][1,3]dioxin-6-yl)methyl)-2,7-diazaspiro[3.5]nonane-7-carbonyl)-1H-1,2,4-triazole-3-carbonitrile]
26 | 1 to 10 nM | 1000 to 10000 nM | N#Cc1ncn(C(=O)N2CC3(CCN(C(c4ccc5c(c4)COCO5)c4ccc5c(c4)COCO5)C3)C2)n1 [Example 84, 1-(6-(bis(4H-benzo[d][1,3]dioxin-6-yl)methyl)-2,6-diazaspiro[3.4]octane-2-carbonyl)-1H-1,2,4-triazole-3-carbonitrile]
27 | 10 to 100 nM | 1000 to 10000 nM | N#Cc1ncn(C(=O)N2CCC3(CCN(C(c4ccc5c(c4)COCO5)c4ccc5c(c4)COCO5)C3)C2)n1 (stereo not shown) [Example 85, 1-(7-(bis(4H-benzo[d][1,3]dioxin-6-yl)methyl)-2,7-diazaspiro[4.4]nonane-2-carbonyl)-1H-1,2,4-triazole-3-carbonitrile]
28 | 1 to 10 nM | 1000 to 10000 nM | COc1ccc(C(c2ccc(OC)cc2)N2CCN(C(=O)n3cnc(C#N)n3)CC2)cc1 [Example 90, 1-(4-(bis(4-methoxyphenyl)methyl)piperazine-1-carbonyl)-1H-1,2,4-triazole-3-carbonitrile]
29 | 1 to 10 nM | ~10000 nM | N#Cc1ncn(C(=O)N2CCN(C(c3ccc4c(c3)OCCO4)c3ccc4c(c3)OCCO4)CC2)n1 [Example 92, 1-(4-(bis(2,3-dihydrobenzo[b][1,4]dioxin-6-yl)methyl)piperazine-1-carbonyl)-1H-1,2,4-triazole-3-carbonitrile]
